Laboratory results reported in the kinase profiling compilation of Christmann-Franck et al. (2016).

How the values were obtained:
Experiment in all cases: KINOMEscan competition binding
Conditions in all cases: compound 0.1 µM
EPHA6 (human) = EPHA6 (human) (UniProt Q9UF33)
CDK13 (human) = CDK13 (human) (UniProt Q14004)
FGFR1 (human) = FGFR1 (human) (UniProt P11362)
PRKG1 (human) = PRKG1 (human) (UniProt Q13976)
ALK (human) = ALK (human) (UniProt Q9UM73)
CSNK1G1 (human) = CSNK1G1 (human) (UniProt Q9HCP0)
MAP4K2 (human) = MAP4K2 (human) (UniProt Q12851)
MAPK15 (human) = MAPK15 (human) (UniProt Q8TD08)
STK35 (human) = STK35 (human) (UniProt Q8TDR2)
SGK1 (human) = SGK1 (human) (UniProt O00141)
RPS6KA3 KD2 (human) = RPS6KA3 KD2 (human) (UniProt P51812)
PAK7 (human) = PAK7 (human) (UniProt Q9P286)
BTK (human) = BTK (human) (UniProt Q06187)
DMPK (human) = DMPK (human) (UniProt Q09013)
MELK (human) = MELK (human) (UniProt Q14680)
CDK2 (human) = CDK2 (human) (UniProt P24941)
CAMKK2 (human) = CAMKK2 (human) (UniProt Q96RR4)
ROCK1 (human) = ROCK1 (human) (UniProt Q13464)
CDK9 (human) = CDK9 (human) (UniProt P50750)
SGK110 (human) = SGK110 (human) (UniProt P0C264)
RIPK4 (human) = RIPK4 (human) (UniProt P57078)
MAP2K2 (human) = MAP2K2 (human) (UniProt P36507)
FGR (human) = FGR (human) (UniProt P09769)
PRKCE (human) = PRKCE (human) (UniProt Q02156)
EPHB1 (human) = EPHB1 (human) (UniProt P54762)
BRSK1 (human) = BRSK1 (human) (UniProt Q8TDC3)
AKT2 (human) = AKT2 (human) (UniProt P31751)
SBK1 (human) = SBK1 (human) (UniProt Q52WX2)
RAF1 (human) = RAF1 (human) (UniProt P04049)
[1] = system: EGFR (human), P00533 [752-759 del]
[2] = molecular target: TYK2 JH2 pseudokinase (human) (UniProt P29597)
MTOR (human) = MTOR (human) (UniProt P42345)
PRKAA2 (human) = PRKAA2 (human) (UniProt P54646)
STK4 (human) = STK4 (human) (UniProt Q13043)
BUB1 (human) = BUB1 (human) (UniProt O43683)
ACVR2B (human) = ACVR2B (human) (UniProt Q13705)
IKBKB (human) = IKBKB (human) (UniProt O14920)
[3] = system: ALK (human), Q9UM73 [C1156Y]
MAP2K3 (human) = MAP2K3 (human) (UniProt P46734)
MAP3K5 (human) = MAP3K5 (human) (UniProt Q99683)

CDK13 (human), sequence (Q14004 whole entry, looked up): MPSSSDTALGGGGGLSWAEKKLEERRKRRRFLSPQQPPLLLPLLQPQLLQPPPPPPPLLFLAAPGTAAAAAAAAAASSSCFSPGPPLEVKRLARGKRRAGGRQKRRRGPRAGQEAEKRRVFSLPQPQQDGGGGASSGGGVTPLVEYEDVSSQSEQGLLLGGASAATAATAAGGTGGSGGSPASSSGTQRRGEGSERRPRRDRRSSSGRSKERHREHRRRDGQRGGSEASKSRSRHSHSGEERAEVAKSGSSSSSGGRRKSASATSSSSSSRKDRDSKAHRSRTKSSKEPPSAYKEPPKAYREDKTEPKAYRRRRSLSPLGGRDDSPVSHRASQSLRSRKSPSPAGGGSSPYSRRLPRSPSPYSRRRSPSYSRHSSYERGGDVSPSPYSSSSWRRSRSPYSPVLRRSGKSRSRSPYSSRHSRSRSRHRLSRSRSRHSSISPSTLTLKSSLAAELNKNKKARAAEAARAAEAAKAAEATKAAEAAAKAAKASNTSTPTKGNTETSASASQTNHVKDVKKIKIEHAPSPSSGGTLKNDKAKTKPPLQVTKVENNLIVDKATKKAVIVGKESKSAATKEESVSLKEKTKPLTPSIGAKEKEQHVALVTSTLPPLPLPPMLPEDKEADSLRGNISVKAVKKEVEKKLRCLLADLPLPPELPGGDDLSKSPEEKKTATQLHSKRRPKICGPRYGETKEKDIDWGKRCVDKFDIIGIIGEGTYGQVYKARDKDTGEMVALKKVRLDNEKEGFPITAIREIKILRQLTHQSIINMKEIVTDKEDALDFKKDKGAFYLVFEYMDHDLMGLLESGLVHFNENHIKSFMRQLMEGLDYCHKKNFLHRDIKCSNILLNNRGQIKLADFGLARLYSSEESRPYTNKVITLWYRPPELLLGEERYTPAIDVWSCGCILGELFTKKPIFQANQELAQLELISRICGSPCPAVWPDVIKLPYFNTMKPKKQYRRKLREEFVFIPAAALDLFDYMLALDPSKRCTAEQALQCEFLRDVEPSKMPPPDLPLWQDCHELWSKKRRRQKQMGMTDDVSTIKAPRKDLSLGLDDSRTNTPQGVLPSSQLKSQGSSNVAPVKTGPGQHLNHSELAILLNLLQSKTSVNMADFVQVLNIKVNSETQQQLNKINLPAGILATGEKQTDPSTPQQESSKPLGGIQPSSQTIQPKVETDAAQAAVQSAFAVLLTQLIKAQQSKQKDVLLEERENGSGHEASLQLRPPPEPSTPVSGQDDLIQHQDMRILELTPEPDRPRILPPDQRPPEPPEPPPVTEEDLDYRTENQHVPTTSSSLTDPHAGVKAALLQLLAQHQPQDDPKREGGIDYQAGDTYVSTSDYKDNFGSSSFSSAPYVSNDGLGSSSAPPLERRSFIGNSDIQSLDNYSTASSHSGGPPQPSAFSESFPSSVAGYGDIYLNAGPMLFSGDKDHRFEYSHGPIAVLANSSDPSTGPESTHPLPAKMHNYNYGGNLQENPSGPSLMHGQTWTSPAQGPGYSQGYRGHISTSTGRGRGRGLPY
MAPK15 (human), sequence (Q8TD08 whole entry, looked up): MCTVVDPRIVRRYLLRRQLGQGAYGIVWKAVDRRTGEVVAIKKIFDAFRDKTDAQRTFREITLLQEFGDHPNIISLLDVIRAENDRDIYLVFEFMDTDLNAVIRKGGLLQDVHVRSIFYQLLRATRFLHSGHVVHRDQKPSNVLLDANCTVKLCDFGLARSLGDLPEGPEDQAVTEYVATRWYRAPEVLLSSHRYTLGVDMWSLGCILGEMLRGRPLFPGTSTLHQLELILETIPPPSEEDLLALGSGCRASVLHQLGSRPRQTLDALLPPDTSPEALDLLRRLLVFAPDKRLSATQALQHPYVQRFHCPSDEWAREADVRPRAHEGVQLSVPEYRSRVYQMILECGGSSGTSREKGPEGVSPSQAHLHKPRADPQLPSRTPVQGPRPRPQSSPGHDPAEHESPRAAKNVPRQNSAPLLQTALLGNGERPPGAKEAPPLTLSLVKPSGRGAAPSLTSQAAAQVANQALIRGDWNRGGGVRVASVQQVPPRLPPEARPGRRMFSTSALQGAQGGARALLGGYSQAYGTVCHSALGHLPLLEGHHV
BRSK1 (human), sequence (Q8TDC3 whole entry, looked up): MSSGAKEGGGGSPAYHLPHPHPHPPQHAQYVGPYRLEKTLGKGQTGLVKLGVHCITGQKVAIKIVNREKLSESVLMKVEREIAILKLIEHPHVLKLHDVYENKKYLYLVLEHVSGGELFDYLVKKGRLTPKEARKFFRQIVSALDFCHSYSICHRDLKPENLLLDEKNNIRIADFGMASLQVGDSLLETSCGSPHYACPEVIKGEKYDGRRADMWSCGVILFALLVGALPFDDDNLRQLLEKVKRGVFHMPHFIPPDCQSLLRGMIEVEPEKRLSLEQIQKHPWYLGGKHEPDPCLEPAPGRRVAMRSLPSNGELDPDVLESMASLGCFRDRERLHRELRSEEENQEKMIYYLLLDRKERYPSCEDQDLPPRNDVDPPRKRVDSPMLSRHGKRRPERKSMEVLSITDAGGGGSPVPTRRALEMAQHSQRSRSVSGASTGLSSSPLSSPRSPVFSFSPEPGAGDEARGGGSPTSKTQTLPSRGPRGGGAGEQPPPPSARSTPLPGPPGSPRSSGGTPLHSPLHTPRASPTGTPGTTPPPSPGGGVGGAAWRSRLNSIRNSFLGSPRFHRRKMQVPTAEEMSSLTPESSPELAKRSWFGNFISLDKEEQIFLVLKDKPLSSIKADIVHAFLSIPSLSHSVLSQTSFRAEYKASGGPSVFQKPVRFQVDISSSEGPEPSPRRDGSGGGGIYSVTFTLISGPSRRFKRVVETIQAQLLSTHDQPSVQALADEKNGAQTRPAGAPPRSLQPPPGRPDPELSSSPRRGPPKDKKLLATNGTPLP
ACVR2B (human), sequence (Q13705 whole entry, looked up): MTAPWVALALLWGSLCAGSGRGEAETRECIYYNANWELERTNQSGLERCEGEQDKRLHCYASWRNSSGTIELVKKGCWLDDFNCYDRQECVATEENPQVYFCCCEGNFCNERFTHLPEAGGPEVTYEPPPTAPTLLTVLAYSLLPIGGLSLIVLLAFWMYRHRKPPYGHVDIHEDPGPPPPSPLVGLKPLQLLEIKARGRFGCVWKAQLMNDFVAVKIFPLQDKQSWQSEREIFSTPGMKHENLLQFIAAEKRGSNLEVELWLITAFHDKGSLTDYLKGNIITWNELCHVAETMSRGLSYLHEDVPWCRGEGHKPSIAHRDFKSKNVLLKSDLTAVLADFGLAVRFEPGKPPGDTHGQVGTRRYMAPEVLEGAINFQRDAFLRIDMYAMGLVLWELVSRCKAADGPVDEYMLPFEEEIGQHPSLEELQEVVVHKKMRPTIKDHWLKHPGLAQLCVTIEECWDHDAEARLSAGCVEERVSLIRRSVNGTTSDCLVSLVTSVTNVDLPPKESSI
EGFR (human), P00533 [752-759 del], sequence (P00533 whole entry, looked up, stated change not applied): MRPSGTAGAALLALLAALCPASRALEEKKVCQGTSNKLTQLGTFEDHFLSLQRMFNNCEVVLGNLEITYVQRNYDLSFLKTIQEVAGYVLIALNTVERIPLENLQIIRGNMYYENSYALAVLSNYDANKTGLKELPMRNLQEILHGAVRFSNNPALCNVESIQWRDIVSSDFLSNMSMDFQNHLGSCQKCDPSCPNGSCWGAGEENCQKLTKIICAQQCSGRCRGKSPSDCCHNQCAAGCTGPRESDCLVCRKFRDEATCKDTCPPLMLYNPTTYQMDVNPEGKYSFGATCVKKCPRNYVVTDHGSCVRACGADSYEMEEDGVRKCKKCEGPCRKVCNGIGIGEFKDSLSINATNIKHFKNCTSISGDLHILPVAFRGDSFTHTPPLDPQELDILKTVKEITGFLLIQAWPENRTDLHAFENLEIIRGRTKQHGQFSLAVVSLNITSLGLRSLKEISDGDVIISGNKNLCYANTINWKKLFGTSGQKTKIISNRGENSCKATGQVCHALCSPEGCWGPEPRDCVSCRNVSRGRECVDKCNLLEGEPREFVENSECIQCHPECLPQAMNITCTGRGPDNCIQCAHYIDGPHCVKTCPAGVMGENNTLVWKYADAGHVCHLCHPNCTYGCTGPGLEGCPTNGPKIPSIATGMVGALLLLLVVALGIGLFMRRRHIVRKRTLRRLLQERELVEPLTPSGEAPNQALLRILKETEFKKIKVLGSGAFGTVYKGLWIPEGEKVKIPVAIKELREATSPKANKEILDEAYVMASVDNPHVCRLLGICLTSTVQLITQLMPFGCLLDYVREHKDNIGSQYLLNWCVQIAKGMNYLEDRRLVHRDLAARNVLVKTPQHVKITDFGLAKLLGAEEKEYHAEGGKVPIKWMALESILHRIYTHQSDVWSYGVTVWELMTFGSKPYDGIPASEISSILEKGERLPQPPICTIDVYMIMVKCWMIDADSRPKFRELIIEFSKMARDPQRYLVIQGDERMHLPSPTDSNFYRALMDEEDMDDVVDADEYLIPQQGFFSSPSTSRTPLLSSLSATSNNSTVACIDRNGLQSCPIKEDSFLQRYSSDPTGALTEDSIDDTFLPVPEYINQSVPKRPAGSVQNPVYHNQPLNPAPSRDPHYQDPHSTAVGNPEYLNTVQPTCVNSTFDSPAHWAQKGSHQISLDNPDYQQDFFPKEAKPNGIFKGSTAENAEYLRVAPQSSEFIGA
CSNK1G1 (human), sequence (Q9HCP0 whole entry, looked up): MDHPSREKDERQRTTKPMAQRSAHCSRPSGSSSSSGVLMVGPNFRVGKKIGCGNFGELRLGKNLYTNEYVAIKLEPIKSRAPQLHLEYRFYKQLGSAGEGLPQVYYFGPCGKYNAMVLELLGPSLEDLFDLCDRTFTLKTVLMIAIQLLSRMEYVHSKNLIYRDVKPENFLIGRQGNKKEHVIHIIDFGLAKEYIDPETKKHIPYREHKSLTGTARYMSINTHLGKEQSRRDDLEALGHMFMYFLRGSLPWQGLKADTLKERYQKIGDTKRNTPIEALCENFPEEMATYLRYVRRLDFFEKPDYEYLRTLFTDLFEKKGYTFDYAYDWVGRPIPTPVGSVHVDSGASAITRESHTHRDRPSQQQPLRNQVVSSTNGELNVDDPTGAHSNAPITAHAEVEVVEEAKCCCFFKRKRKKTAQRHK

Structure (SMILES): CCc1ccc(C(=O)Nc2cc(CN3CCN(C)CC3)cc(C(F)(F)F)c2)cc1C#Cc1cnc2ccnn2c1
- kinase still bound, per cent of control (EPHA6 (human)): 63%
- kinase still bound, per cent of control (CDK13 (human)): 71%
- kinase still bound, per cent of control (FGFR1 (human)): 84%
- kinase still bound, per cent of control (PRKG1 (human)): 99%
- kinase still bound, per cent of control (ALK (human)): 100%
- kinase still bound, per cent of control (CSNK1G1 (human)): 85%
- kinase still bound, per cent of control (MAP4K2 (human)): 100%
- kinase still bound, per cent of control (MAPK15 (human)): 100%
- kinase still bound, per cent of control (STK35 (human)): 100%
- kinase still bound, per cent of control (SGK1 (human)): 93%
- kinase still bound, per cent of control (RPS6KA3 KD2 (human)): 100%
- kinase still bound, per cent of control (PAK7 (human)): 85%
- kinase still bound, per cent of control (BTK (human)): 100%
- kinase still bound, per cent of control (DMPK (human)): 100%
- kinase still bound, per cent of control (MELK (human)): 95%
- kinase still bound, per cent of control (CDK2 (human)): 84%
- kinase still bound, per cent of control (CAMKK2 (human)): 73%
- kinase still bound, per cent of control (ROCK1 (human)): 83%
- kinase still bound, per cent of control (CDK9 (human)): 98%
- kinase still bound, per cent of control (SGK110 (human)): 100%
- kinase still bound, per cent of control (RIPK4 (human)): 100%
- kinase still bound, per cent of control (MAP2K2 (human)): 100%
- kinase still bound, per cent of control (FGR (human)): 59%
- kinase still bound, per cent of control (PRKCE (human)): 94%
- kinase still bound, per cent of control (EPHB1 (human)): 96%
- kinase still bound, per cent of control (BRSK1 (human)): 100%
- kinase still bound, per cent of control (AKT2 (human)): 83%
- kinase still bound, per cent of control (SBK1 (human)): 73%
- kinase still bound, per cent of control (RAF1 (human)): 57%
- kinase still bound, per cent of control [1]: 100%
- kinase still bound, per cent of control [2]: 100%
- kinase still bound, per cent of control (MTOR (human)): 100%
- kinase still bound, per cent of control (PRKAA2 (human)): 100%
- kinase still bound, per cent of control (STK4 (human)): 63%
- kinase still bound, per cent of control (BUB1 (human)): 100%
- kinase still bound, per cent of control (ACVR2B (human)): 100%
- kinase still bound, per cent of control (IKBKB (human)): 97%
- kinase still bound, per cent of control [3]: 97%
- kinase still bound, per cent of control (MAP2K3 (human)): 100%
- kinase still bound, per cent of control (MAP3K5 (human)): 100%
